Test results as given in US5932608A, “Melatonin derivative dermocosmetic compositions for whitening/depigmenting the skin” (Societe L'Oreal S.A., priority 1996, dated 1999).

Tests used:
fungal tyrosinase = test: in vitro test of inhibition of tyrosinase (dopachrome formation, 475 nm); assay type: biochemical; details: for inhibition of the tyrosinase activity (decrease in the percentage of formation of dopachrome): 25° C., pH 6.5, FIGS. 1 and 2
Source text: According to this test, the amount of dopachrome formed during the reaction sequence for the conversion of tyrosine into melanins was monitored by visible spectrometry at 475 nm. These reactions were catalyzed in vitro by fungal tyrosinase, in the presence of a reductive co-substrate (for example L-dopa in small amounts) in order to initiate the hydroxylation reaction of the L-tyrosine into L-dopa, which was then oxidized catalytically into dopaquinone and then into dopachrome.
The concentration of dopachrome formed over time was thus measured in the presence and absence of the inhibitor. The inhibition effect is expressed by lowering the maximum amount of dopachrome formed (optical density value at 475 nm read at the plateau of the curve) relative to the amount obtained in the absence of inhibitor.
A. 0.1M phosphate buffer pH 6.5 (1% Tween 20)
B. Stock solution of 2×10^-3 M L-tyrosine in A
C. Stock solution of 10^-4 M L-dopa in A
D. Stock solution of fungal tyrosinase containing 2400 units/ml in A
E. Stock solution of the inhibitor at 10^-2 M in A
The solutions C and D were prepared on the day of use.
Reference cell: 3 ml of A
Homogenize and equilibrate at 25° C.
Mixed together rapidly and observed the kinetics by measuring the absorbance as a function of time.

skin pigmentation = details: exogenous melatonin; D. B. McElhinney et al., J. Invest. Dermatol, 102 (2), 258-9 (1994); cited from earlier work

| SMILES | inhibition of the tyrosinase activity (decrease in the percentage of formation of dopachrome) (fungal tyrosinase; 0.1 ml of solution E (inhibitor 10^-2 M stock) in 3 ml test cell) | inhibition of the tyrosinase activity (decrease in the percentage of formation of dopachrome) (fungal tyrosinase; 0.2 ml of solution E (inhibitor 10^-2 M stock) in 3 ml test cell) | effect on skin pigmentation in man (skin pigmentation) | inhibition of the tyrosinase activity (fungal tyrosinase; similar tests, amount of inhibitor not stated) |
| --- | --- | --- | --- | --- |
| COc1cc2c(CCNC(C)=O)c[nH]c2cc1O [6-hydroxymelatonin] | significant inhibition | significant inhibition | – | – |
| COc1ccc2[nH]cc(CCNC(C)=O)c2c1 [melatonin, N-acetyl-5-methoxytryptamine] | – | – | no effect | absence of inhibition |
